Data published in patent US4269834A, “Copper complexes of isoquinazolines” (priority 1977, dated 1981).
In brackets after ≈: the same amount, converted by molar mass. Read-outs that look alike come from different tables or passages of the source.

Tested on: Mycoplasma gallisepticum
Test: Activity against Mycoplasma gallisepticum (minimum inhibiting concentration)
Format: cell-based
Conditions: for MIC: without added Cu; for MIC with Cu: media containing 50 μg/ml Cu^2+
Text: The following tables show some activities--expressed as minimum inhibiting concentration (MIC)--of the prepared compounds against various micro-organisms. The compounds are identified by reference to the Example in which they are described. When more than one compound is mentioned in an Example, they are distinguished by a number between parentheses, corresponding to their order of occurrence, for instance: VI (2) refers to the second compound prepared according to Example VI. The term "with Cu" refers to tests conducted in media containing 50 μg/ml Cu^2+.
The activities of the following compounds, not mentioned in the Examples, were also measured.

[1] = Mycoplasmoides gallisepticum, Table I, read-out: MIC

| SMILES | MIC with Cu (Table I) [µg/mL] | MIC (Table I) [µg/mL] | other results |
| --- | --- | --- | --- |
| C=Cn1ccnc1-c1cc2ccccc2c(N)n1 [Example XVIIc, 1-amino-3-(1-ethenyl-1H-imidazole-2-yl) isoquinoline] | 0.2 | – | MIC [1]: > 100 µg/mL |
| Cn1ccnc1-c1cc2ccccc2c(N)n1.Cn1ccnc1-c1cc2ccccc2c(N)n1.O=[N+]([O-])[O-].O=[N+]([O-])[O-].[Cu+2] [XVb (3), Bis[1-amino-3-(1-methyl-1H-imidazole-2-yl)isoquinoline]cupric nitrate] | 1.5 | 12.5 | – |
| Nc1ccc2ccc3ccc(N)nc3c2n1 [E] | – | – | MIC (Mycoplasmoides gallisepticum, Table IVb, read-out: MIC M. gall.): 50 µg/mL (≈ 238 µM); MIC M. gall. with Cu (Table IVb, with Cu (50 μg/ml Cu^2+)): 0.8 µg/mL |
| C=Cn1ccnc1-c1nc(N)c2ccccc2n1.C=Cn1ccnc1-c1nc(N)c2ccccc2n1.O=[N+]([O-])[O-].[Cu+] [XVIIIb (1), Bis[4-amino-2-(1-ethenyl-1H-imidazole-2-yl)quinazoline]cuprous nitrate] | 0.2 | 12.5 | – |
| Nc1nc(-c2ncc[nH]2)cc2ccccc12.O=[N+]([O-])[O-].O=[N+]([O-])[O-].[Cu+2] [XIXb (2), Mono[1-amino-3-(1H-imidazole-2-yl)isoquinoline]cupric nitrate] | 3 | 50 | – |
| Clc1nc(-c2ccccn2)cc2ccccc12 [XIIc (2), 1-chloro-3-(2-pyridyl)isoquinoline] | 0.06 | – | – |
| C=Cn1ccnc1-c1cc2ccccc2c(N)n1.O=[N+]([O-])[O-].O=[N+]([O-])[O-].[Cu+2] [XVIId (2), Mono[1-amino-3-(1-ethenyl-1H-imidazole-2-yl)isoquinoline]cupric nitrate] | 0.2 | 12.5 | – |
| Cn1ccnc1-c1cc2ccccc2c(N)n1.Cn1ccnc1-c1cc2ccccc2c(N)n1.O=[N+]([O-])[O-].[Cu+] [XVb (1), Bis[1-amino-3-(1-methyl-1H-imidazole-2-yl)isoquinoline]cuprous nitrate] | 0.8 | 12.5 | – |
| Cc1cccc(-c2cc3ccccc3c(Cl)n2)n1 [XIb, 1-Chloro-3-(6-methyl-2-pyridyl)isoquinoline] | 1 | – | – |
| Nc1nc(-c2ccccn2)cc2ccc(I)cc12 [VIIIl] | 0.2 | – | – |
| Nc1nc(-c2ccccn2)cc2cccc(Cl)c12 [VIIIj] | 0.2 | – | MIC [1]: 100 µg/mL (≈ 391 µM) |
| Cl.Cl.Nc1nc(-c2ncc[nH]2)nc2ccccc12 [XXa, 4-amino-2(1H-imidazole-2-yl)quinazoline dihydrochloride] | 3 | – | MIC [1]: > 100 µg/mL |
| Cc1cccc(-c2cc3ccccc3cn2)n1 [XIc, 3-(6-methyl-2-pyridyl)isoquinoline] | 0.1 | – | – |
| Cn1ccnc1-c1nc(N)c2ccccc2n1.O=[N+]([O-])[O-].O=[N+]([O-])[O-].[Cu+2] [XVIb (2), Mono[4-amino-2-(1-methyl-1H-imidazole-2-yl)quinazoline]cupric nitrate] | 0.4 | 6 | – |
| Cn1ccnc1-c1nc(N)c2ccccc2n1.Cn1ccnc1-c1nc(N)c2ccccc2n1.O=[N+]([O-])[O-].[Cu+] [XVIb (1), Bis[4-amino-2-(1-methyl-1H-imidazole-2-yl)quinazoline]cuprous nitrate] | 0.2 | 6 | – |
| c1ccc(-c2nc(-c3ccccn3)cc3ccccc23)cc1 [XIVb, 1-phenyl-3-(2-pyridyl)isoquinoline] | 0.2 | – | – |
| Cn1ccnc1-c1cc2ccccc2c(N)n1 [XVa, 1-amino-3-(1-methyl-1H-imidazole-2-yl)isoquinoline] | 1.5 | – | MIC [1]: > 100 µg/mL |
| Nc1nc(-c2ccccn2)cc2c(Cl)cccc12.Nc1nc(-c2ccccn2)cc2c(Cl)cccc12.O=[N+]([O-])[O-].[Cu+] [IIa, Bis[1-amino-5-chloro-3-(2-pyridyl)isoquinoline]cuprous nitrate] | – | 1.5 | – |
